Data from PubChem BioAssay AID1197 (NMMLSC, 2008).
Active and inactive are the calls of the source. The rule behind the calls is not given here.

Experiments:
[1] = cytotoxicity in LNCaP prostate cancer cells – cell-based, flow cytometry, event count, cytotoxicity control for prostate cell differentiation activator project, dose response (AID 1197); details: LNCaP cell loss, flow cytometry event count, 4 d; at 30 µM (top of the series)
[2] = test system: LNCaP cell loss, flow cytometry event count, 4 d; assay: as above

Row | SMILES | event count (lower = more killing) [1] | EC50 [2]
1 | O=c1cc(-c2ccccc2)[nH]c2ccccc12 | 83.8% (inactive) | 
2 | CC1CCCCN1CCNC(=O)c1cc2c(-c3ccccc3F)nn(C)c2s1 (centres undefined) | 103% (inactive) | 
3 | Cc1ccccc1-c1nc(CN2CCC(C(=O)NCCCN3CCOCC3)CC2)c(C)o1 | 109% (inactive) | 
4 | Oc1c(CN2CCCCC2)cc(COCc2ccccc2)c2cccnc12 | 137% (inactive) | 
5 | CCn1c(=O)cc(SCC(=O)NCCN2CCN(Cc3ccccc3)CC2)c2ccccc21 | 306% (inactive) | 
6 | Cc1cc2c(=O)n(CC(=O)N3CCN(c4ccccc4)CC3)cnc2s1 |  | 1.61 µM
7 | COc1ccc(-c2ccc(-c3noc(-c4ccccc4)n3)c(OC)n2)cc1 | 153% (inactive) | 
8 | O=C(NCCCN1CCN(c2ccc(F)cc2)CC1)c1cccc(N2CCCC2=O)c1 | 191% (inactive) | 
9 | N=c1n(CCN2CCCCC2)c2ccccc2n1CC(O)COc1ccccc1 (centres undefined) |  | 19.2 µM (inactive)
10 | Cn1c(=O)cc(OCC(=O)NCCCN2CCN(c3ccccc3F)CC2)c2ccccc21 |  | 0.101 µM
11 | CCN(CC)CCCNC(=O)c1cc2c(-c3ccc(Cl)cc3)nn(C)c2s1 | 22.2% (inactive) | 
12 | CN(CC(O)COc1ccc(OCC(O)CN(C)C2CCCCC2)cc1)C1CCCCC1 (centres undefined) | 126% (inactive) | 
13 | CCN1CCCC1CNC(=O)C1CCN(Cc2nc(-c3cccc(Br)c3)oc2C)CC1 (centres undefined) |  | 6.68 µM
14 | Nc1ccc(-n2ccnc2)cc1 | 282% (inactive) | 
15 | COc1ccc(-c2oc3ncn(CCN4CCOCC4)c(=N)c3c2-c2ccc(OC)cc2)cc1 |  | 0.198 µM
16 | CC(C)(C)c1ccc(C(O)CCCN2CCC(C(O)(c3ccccc3)c3ccccc3)CC2)cc1 (centres undefined) | 23.5% (inactive) | 
17 | CC(C)N1CCC2(CC1)N=C(c1ccc3c(c1)OCO3)CC(c1cc(Cl)ccc1O)N2 (centres undefined) |  | 1.94 µM
18 | CN1CCN(c2cc3c(c4c2[nH]c2ccccc24)C(=O)CC(C)(C)C3)CC1 | 48.8% (inactive) | 
19 | CCOC(=O)c1c(C)[nH]c(C(=O)COC(=O)C2CC2C)c1C (centres undefined) |  | 0.166 µM
20 | CCN(CC)CCNC(=O)c1cc2c(-c3ccc(Cl)cc3)nn(C)c2s1 | 140% (inactive) | 
21 | Clc1ccc(COC(Cn2ccnc2)c2ccc(Cl)cc2Cl)cc1 (centres undefined) | 223% (inactive) | 
22 | COc1ccc(CCN2CCC(Nc3nc4ccccc4n3Cc3ccc(F)cc3)CC2)cc1 |  | 3.74 µM
23 | COC(=O)c1cc(-c2ccccc2)sc1NC(=O)c1cc(C)on1 | 394% (inactive) | 

Row | SMILES | event count (lower = more killing) [1] | EC50 [2]
24 | COc1ccc(-c2noc(CCC(=O)NCCCN3CCC(Cc4ccccc4)CC3)n2)cc1 |  | 15.6 µM (inactive)
25 | Cc1cc(N2CCN(C)CC2)nc2ccc(NC(=O)c3ccc(Br)o3)cc12 | 422% (inactive) | 
26 | CCCc1cc(-c2n[nH]c(C)c2-c2ccc(C(=O)OCC)o2)c(O)cc1O | 98.2% (inactive) | 
27 | CCN1CCN(c2ncc(C(=O)Nc3cc(Cl)c(OC)cc3OC)c3ccccc23)CC1 | 208% (inactive) | 
28 | Cn1c(=O)[nH]c(=O)c2c1nc(Br)n2CCCSc1nc2ccccc2o1 | 150% (inactive) | 
29 | CCCOc1ccccc1C1CC(=O)Nc2cc3c(cc21)OCO3 (centres undefined) | 21.8% (inactive) | 
30 | Cc1ccc2c(c1)-c1c(cnn1CC(=O)Nc1ccccc1N1CCN(C)CC1)CO2 | 163% (inactive) | 
31 | Cc1cccc(-c2nsc(SCC(=O)Nc3nccs3)n2)c1 | 296% (inactive) | 
32 | COc1ccc(-c2cc(C(F)(F)F)nc(N3CCN(Cc4ccccc4)CC3)n2)cc1OC |  | 0.549 µM
33 | COc1cc2nc(N3CCN(C(=O)C4COc5ccccc5O4)CC3)nc(N)c2cc1OC (centres undefined) | 104% (inactive) | 
34 | Cn1c(=O)cc(SCC(=O)NCCCN2CCN(c3ccccc3F)CC2)c2ccccc21 | 258% (inactive) | 
35 | COc1ccccc1NC(=O)c1nc[nH]c1C(=O)Nc1ccccc1OC | 87.2% (inactive) | 
36 | COc1ccc(CCn2c(=N)c(C(=O)NCc3ccco3)cc3c(=O)n4ccccc4nc32)cc1 | 37.8% (inactive) | 
37 | CCN(CCNC(=O)C1CCN(Cc2nc(-c3cccc(Cl)c3)oc2C)CC1)c1ccccc1 |  | 3.07 µM
38 | Cc1ccccc1-c1nc(CN2CCC(C(=O)NCCCN3CC(C)CC(C)C3)CC2)c(C)o1 (centres undefined) | 108% (inactive) | 
39 | CCN1CCCC1CNC(=O)c1cc2c(-c3ccc(Cl)cc3)nn(C)c2s1 (centres undefined) | 27.8% (inactive) | 
40 | Cn1nc(-c2ccc(Cl)cc2)c2cc(C(=O)NCCCN3CCCC3)sc21 |  | 13 µM (inactive)
41 | Cc1ccccc1-c1nc(CN2CCCC(C(=O)NCCCN3CCOCC3)C2)c(C)o1 (centres undefined) | 187% (inactive) | 
42 | Cn1c(C(=O)NCCCN2CCN(c3cccc(Cl)c3)CC2)cc2c(=O)n(C)c3ccccc3c21 | 137% (inactive) | 
43 | CCOc1cccc2cc(-c3cn4cc(C)ccc4n3)c(=O)oc12 | 76.2% (inactive) | 
44 | Cc1ccc(OCC(O)Cn2c(=N)n(CCN3CCCCC3)c3ccccc32)cc1 (centres undefined) |  | 8.65 µM
45 | CCN(CC)CCNC(=O)c1ccc(N2CCCCC2)c(NS(=O)(=O)c2ccc(C)cc2)c1 | 70.8% (inactive) | 
46 | Cc1oc(-c2ccc(Cl)cc2)nc1CN1CCC(C(=O)NCCCN2CCOCC2)CC1 |  | 6.27 µM

Row | SMILES | event count (lower = more killing) [1] | EC50 [2]
47 | Cc1ccc(Nc2cc(=O)n(C3CCCCC3)c(=O)[nH]2)cc1C | 55.5% (inactive) | 
48 | Cc1ccc(C)c(N2CCN(CCCNC(=O)Cn3cc4c(n3)CCCCC4)CC2)c1 | 71.8% (inactive) | 
49 | Cn1nc(-c2ccc(Cl)cc2)c2cc(C(=O)NCCCN3CCOCC3)sc21 |  | 14.5 µM (inactive)
50 | CCCS(=O)(=O)N1CCCC(C(=O)NCCCN2CCN(c3ccc(F)cc3)CC2)C1 (centres undefined) | 238% (inactive) | 
51 | CN(CCNC(=O)C1CC(=O)N(c2ccc(F)c(Cl)c2)C1)Cc1ccccc1 (centres undefined) | 343% (inactive) | 
52 | Cc1noc(/C=C/c2ccco2)c1S(=O)(=O)N1CCC(C(=O)N2CCc3ccccc3C2)CC1 |  | 4.53 µM
53 | O=S1(=O)C=C(Sc2nc3ccccc3s2)c2ccccc21 | 150% (inactive) | 
54 | CCn1c(=O)cc(SCC(=O)NCCCN2CCN(c3ccccc3F)CC2)c2ccccc21 | 210% (inactive) | 
55 | CCOC(=O)c1[nH]c(C)c(C(=O)N2CCc3ccccc32)c1C |  | 0.888 µM
56 | CC1CCCCN1CCNC(=O)c1ccc2c(=O)n(CCc3ccccc3)c(=O)[nH]c2c1 (centres undefined) | 191% (inactive) | 
57 | COc1ccccc1N1CCN(Cc2cc(Br)c(O)c3ncccc23)CC1 |  | 0.351 µM
58 | CCc1ccc(-c2nc(CN3CCC(C(=O)NCc4ccc(F)cc4)CC3)c(C)o2)cc1 |  | 5.17 µM
59 | CCN1CCN(C(c2cccs2)C(C)NS(=O)(=O)c2ccc(Br)cc2)CC1 (centres undefined) | 282% (inactive) | 
60 | COc1ccc(N2CCN(CCCNC(=O)c3cc4sccc4n3C)CC2)cc1 | 282% (inactive) | 
61 | CCN1CCN(c2cc(C)c3cc(NC(=O)c4ccc(Br)o4)ccc3n2)CC1 | 55.2% (inactive) | 
62 | Cc1cc(N2CCN(C)CC2)nc2ccc(NC(=O)c3ccc4c(c3)OCO4)cc12 | 80.5% (inactive) | 
63 | CCN(CCNC(=O)C1CCN(Cc2nc(-c3ccc(Cl)cc3)oc2C)CC1)c1ccccc1 |  | 8.33 µM
64 | CCOc1ccc(NC(=O)COc2nsnc2N2CCCCC2)cc1 | 160% (inactive) | 
65 | COc1ccccc1N1CCN(c2nc3ccccc3nc2C(C#N)C(=O)OC(C)C)CC1 (centres undefined) |  | 2.77 µM
66 | O=C(NCCCN1CCN(c2cccc(Cl)c2)CC1)c1cccc(N2CCCC2=O)c1 | 305% (inactive) | 
67 | Cc1oc(-c2ccc(Cl)cc2)nc1CN1CCC(C(=O)N2CCN(Cc3ccccc3)CC2)CC1 | 91.8% (inactive) | 
68 | CCN(CC)CC(=O)Nc1ccc(-c2nc3cc(NC(=O)CN(CC)CC)ccc3o2)cc1 | 98.5% (inactive) | 
69 | CCOC(=O)c1ccccc1NC(=O)Cn1c(-c2nonc2N)nc2ccccc21 | 116% (inactive) | 

Row | SMILES | event count (lower = more killing) [1] | EC50 [2]
70 | CCN1CCN(CCNC(=O)C2CCN(Cc3nc(-c4ccc(Cl)cc4)oc3C)CC2)CC1 | 83.2% (inactive) | 
71 | COc1ccc(N2CCN(CCCNC(=O)CCCn3c(=O)[nH]c4ccsc4c3=O)CC2)cc1 | 175% (inactive) | 
72 | CCOc1ccccc1NC(=O)c1nc[nH]c1C(=O)Nc1ccccc1OCC | 257% (inactive) | 
73 | CN(C)c1ccc(CNC2CC(C)(C)NC(C)(C)C2)cc1 | 284% (inactive) | 
74 | CN(C)CCCN1c2ccccc2CCc2ccc(Cl)cc21 | 32.2% (inactive) | 
75 | O=C(c1ccccc1)c1ccc(N2CCNCC2)cc1 | 236% (inactive) | 
76 | COc1ccc(-c2noc(-c3cc(Cl)ccc3Cl)n2)cc1OC |  | 4.83 µM
77 | Cc1ccc(Cl)cc1N1CCN(C(=O)c2cc3c(=O)n(C)c4ccccc4c3n2C)CC1 | 26.8% (inactive) | 
78 | CCOC(=O)c1c(C)n(C)c2ccc(OCC(O)CNC(CC)CO)cc12 (centres undefined) | 115% (inactive) | 
79 | CCn1c(=N)n(CC(O)COc2cccc(C)c2)c2ccccc21 (centres undefined) | 275% (inactive) | 
80 | COc1ccc(Cc2nc(-c3ccc(-n4cccc4)cc3)no2)cc1OC | 104% (inactive) | 
81 | C[C@H]1CCC/C=C/C2C[C@H](O)CC2[C@H](O)/C=C/C(=O)O1 (some centres undefined) | 12.8% (inactive) | 
82 | O=C(CCN1C(=O)COc2ccccc21)NCCCN1CCN(c2ccc(F)cc2)CC1 | 279% (inactive) | 
83 | Cc1nc2ncnn2c(C)c1CCC(=O)NCCCN1CCN(c2cccc(Cl)c2)CC1 | 374% (inactive) | 
84 | COc1ccc(N2CCN(CCCNC(=O)CC3Oc4ccc(C)cc4NC3=O)CC2)cc1 (centres undefined) | 343% (inactive) | 
85 | Cc1cc(C)nc(N2CCC(C(=O)Nc3ccc(Oc4ccccc4)cc3)CC2)n1 | 170% (inactive) | 
86 | Cc1ccc(CNc2nc3ccccc3n3nnnc23)cc1 | 128% (inactive) | 
87 | Cc1ccccc1-c1nc(CN2CCC(C(=O)NCCCN3CCCC3)CC2)c(C)o1 | 76.5% (inactive) | 
88 | Cc1ccccc1-c1nc(CN2CCC(C(=O)NCc3cccnc3)CC2)c(C)o1 | 295% (inactive) | 
89 | O=C(Cn1cc2c(n1)CCCC2)NCCCN1CCN(c2ccccc2F)CC1 | 333% (inactive) | 
